Experimental data as given in patent US9730940B2, “Purine inhibitors of human phosphatidylinositol 3-kinase delta” (priority 2012, dated 2017).

What follows are compounds tested against PI3K-alpha (Homo sapiens (Human), UniProt P42336) (assay: HTRF PI3K biochemical assay, alpha isoform). Conditions: ratio PI3K-alpha IC50 value/PI3K-delta IC50 value.
Text: HTRF PI3K Biochemical Assay to Measure Intrinsic Potency of Compound Inhibitors
The PI3-Kinase biochemical assays were developed to measure the intrinsic potency and compound dependent inhibition of the alpha, beta, delta, and gamma PI3K isoform enzymes. This assay was developed and further optimized from a kit produced by Upstate (Millipore catalog #33-047) and has been configured for HTS and SAR screening. Briefly, this procedure exploits the exquisite specificity and high affinity binding of enzyme reaction substrate phosphatidyl(3,4,5)triphosphate (PIP3) to the GRP1 pleckstrin homology (PH) domain to generate the signal. In the absence of PIP3, an HTRF (Homogeneous Time-Resolved Fluorescence energy transfer) complex is formed consisting of europium (Eu)-labeled anti-GST, GST tagged GRP1-PH domain, biotin-PIP3 and streptavidin conjugated APC. The native PIP3 produced by PI3-Kinase activity disrupts in a competitive manner the biotin-PIP3 from the PH domain, resulting in the loss of energy transfer (HTRF complex) and a decrease in the signal. The format of this assay is the same for all 4 isoforms of PI3K; the differences lie in the concentration of enzyme used to achieve robust assay window. The alpha, beta, and delta assays are run at 0.5, 1, and 0.3 nM enzymes and the gamma assay is run at 5 nM enzyme. The ATP concentration is 100 uM in the alpha, beta, and delta assays and 50 uM ATP in the gamma assay. All reactions are run at 5 uM PIP2.
Compounds are serially diluted (3-fold in 100% DMSO) across a 384-well polypropylene source plated from column 3 to column 12 and column 13 to column 22, to yield 10 concentration dose response for each test compound. Columns 1, 2, 23 and 24 contain either only DMSO or pharmacological known control inhibitor.
The PI3-Kinase biochemical assay was optimized using the HTRF kit provided by Upstate (Millipore). The assay kit contains six reagents: 1) 4× Reaction Buffer; 2) native PIP2 (substrate); 3) Stop (EDTA); 4) Detection Mix A (Streptavidin-APC); 5) Detection Mix B (Eu-labeled Anti-GST plus GST-tagged PH-domain); 6) Detection Mix C.
PI3Kinase Reaction Buffer is prepared by dilution the stock 1:4 with de-ionized water. […] Enzyme addition and compound pre-incubation are initiated by the addition of 1.25 ul of PI3K (at twice its final concentration) in the 1× reaction buffer to all wells using a BioRaptor. Plates are incubated at room temperature for 15 minutes. Reactions are initiated by addition of 1.25 ul of 2× substrate solution (PIP2 and ATP in 1× reaction buffer) using BioRaptor. Plates are incubated in humidified chamber at room temperature for one hour. Reactions are quenched by addition of 0.625 uL of stop solution to all wells using the BioRaptor. The quenched reactions are then processed to detect product formation by adding 0.625 uL of Detection Solution to all wells using the BioRaptor (Detection mix C, Detection Mix A, and Detection Mix B combined together in an 18:1:1 ratio prepared 2 hours prior to use).
The loss of the HTRF signal is due to the displacement of biotinylated-PIP3 from the PH domain by the PI3K-dependent conversion of PIP2 to PIP3. This loss of signal is nonlinear with respect to both increasing product and time. This non-linear detection will impact accuracy of IC50 calculations; therefore, there is a need for a correction factor to obtain more accurate IC50 values. This correction is derived from a PIP3 standard curve run in a separate assay plate. All data were calculated using the ratio of acceptor (APC) to donor (Europium) fluorescence in each well of the assay plate. […] An IC50 was then calculated fitting the % inhibition data to the equation: % inhibition=min+(Max−min)/1+([inhibitor]/IC50)^n) where min is the % inhibition […], max is the signal in DMSO control, and n is the Hill slope.

Chain of PI3K-alpha (P42336 whole entry, looked up, canonical isoform): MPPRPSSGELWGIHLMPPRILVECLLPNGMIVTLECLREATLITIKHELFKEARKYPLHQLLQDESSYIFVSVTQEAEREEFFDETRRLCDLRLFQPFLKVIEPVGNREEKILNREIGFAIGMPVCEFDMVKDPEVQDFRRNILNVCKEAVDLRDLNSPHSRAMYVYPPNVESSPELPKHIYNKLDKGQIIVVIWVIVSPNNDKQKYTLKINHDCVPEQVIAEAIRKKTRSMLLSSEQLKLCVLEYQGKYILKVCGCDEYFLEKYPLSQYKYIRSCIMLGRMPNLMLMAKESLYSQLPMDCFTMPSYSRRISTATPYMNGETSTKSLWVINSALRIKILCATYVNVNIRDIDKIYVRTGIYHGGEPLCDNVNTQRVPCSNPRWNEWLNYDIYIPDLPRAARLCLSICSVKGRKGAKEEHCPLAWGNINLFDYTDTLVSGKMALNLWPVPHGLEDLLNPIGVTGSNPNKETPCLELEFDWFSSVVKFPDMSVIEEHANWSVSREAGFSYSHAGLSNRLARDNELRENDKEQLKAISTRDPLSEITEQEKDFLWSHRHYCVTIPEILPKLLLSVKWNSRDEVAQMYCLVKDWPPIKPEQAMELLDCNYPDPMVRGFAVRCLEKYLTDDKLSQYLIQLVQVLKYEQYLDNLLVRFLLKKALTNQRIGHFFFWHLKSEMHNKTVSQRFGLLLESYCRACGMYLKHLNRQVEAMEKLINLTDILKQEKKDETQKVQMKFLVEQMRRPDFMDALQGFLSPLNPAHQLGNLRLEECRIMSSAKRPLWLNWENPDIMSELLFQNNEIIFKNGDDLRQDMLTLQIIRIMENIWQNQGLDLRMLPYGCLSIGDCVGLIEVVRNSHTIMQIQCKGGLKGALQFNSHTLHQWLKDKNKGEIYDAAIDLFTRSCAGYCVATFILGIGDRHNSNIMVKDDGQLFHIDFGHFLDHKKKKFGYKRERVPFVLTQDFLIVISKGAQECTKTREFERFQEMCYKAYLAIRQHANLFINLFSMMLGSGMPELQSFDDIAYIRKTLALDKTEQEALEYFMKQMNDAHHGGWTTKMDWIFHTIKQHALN
Chain of PI3K-alpha (P27986 whole entry partner, looked up, canonical isoform): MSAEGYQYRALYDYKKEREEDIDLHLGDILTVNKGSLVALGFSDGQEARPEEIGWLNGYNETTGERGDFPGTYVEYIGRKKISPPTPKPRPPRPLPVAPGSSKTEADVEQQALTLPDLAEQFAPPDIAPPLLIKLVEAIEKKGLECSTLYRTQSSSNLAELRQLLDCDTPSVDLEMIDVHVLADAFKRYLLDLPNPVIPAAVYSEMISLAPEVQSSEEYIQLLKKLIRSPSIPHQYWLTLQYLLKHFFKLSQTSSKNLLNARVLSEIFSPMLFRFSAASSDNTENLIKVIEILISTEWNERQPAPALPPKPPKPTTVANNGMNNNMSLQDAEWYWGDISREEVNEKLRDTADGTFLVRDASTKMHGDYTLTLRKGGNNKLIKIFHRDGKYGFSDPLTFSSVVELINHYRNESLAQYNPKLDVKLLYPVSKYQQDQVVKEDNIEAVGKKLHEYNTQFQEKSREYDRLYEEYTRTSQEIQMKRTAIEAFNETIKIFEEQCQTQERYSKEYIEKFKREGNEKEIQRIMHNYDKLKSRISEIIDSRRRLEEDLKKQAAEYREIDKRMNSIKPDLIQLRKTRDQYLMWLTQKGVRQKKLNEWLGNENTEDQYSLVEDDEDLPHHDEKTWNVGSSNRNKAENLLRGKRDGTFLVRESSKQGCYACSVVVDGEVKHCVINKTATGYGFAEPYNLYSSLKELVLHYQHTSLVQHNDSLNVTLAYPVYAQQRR

Row | SMILES | Relative Selectivity versus PI3Kalpha
1 | CCn1c(-c2cnc(C)nc2)nc2c(OC3CN(C(=O)C4CC4)CC3C(F)F)ncnc21 (single isomer, unassigned) [Compound 3-66, cyclopropyl([(3R,4S) or (3S,4R)]-3-(difluoromethyl)-4-((9-ethyl-8-(2-methylpyrimidin-5-yl)-9H-purin-6-yl)oxy)pyrrolidin-1-yl)methanone] | >10
2 | CCn1c(-c2cnc(C)nc2)nc2c(OC3CN(C(=O)C4CC4)CC3C(F)F)ncnc21 (single isomer, unassigned) [Compound 3-67, cyclopropyl([(3R,4S) or (3S,4R)]-3-(difluoromethyl)-4-((9-ethyl-8-(2-methylpyrimidin-5-yl)-9H-purin-6-yl)oxy)pyrrolidin-1-yl)methanone] | >10
3 | CCn1c(-c2cnc(C)nc2)nc2c(OC3CN(C(=O)C4CC4)CC3CF)ncnc21 (single isomer, unassigned) [Compound 3-68, cyclopropyl([(3S,4R) or (3R,4S)]-3-((9-ethyl-8-(2-methylpyrimidin-5-yl)-9H-purin-6-yl)oxy)-4-(fluoromethyl)pyrrolidin-1-yl)methanone] | >10
4 | CCn1c(-c2cnc(C)nc2)nc2c(OC3CN(C(=O)C4CC4)CC3CF)ncnc21 (single isomer, unassigned) [Compound 3-69, cyclopropyl([(3S,4R) or (3R,4S)]-3-((9-ethyl-8-(2-methylpyrimidin-5-yl)-9H-purin-6-yl)oxy)-4-(fluoromethyl)pyrrolidin-1-yl)methanone] | >10
5 | CCn1c(-c2cnc(C)nc2)nc2c(OC3CCC(NC(=O)C4CCOCC4)C3)ncnc21 (single isomer, unassigned) [Compound 9-9, N-[(1S,3S) or (1R,3R)]-(3-{[9-ethyl-8-(2-methylpyrimidin-5-yl)-9H-purin-6-yl]oxy}cyclopentyl)tetrahydro-2H-pyran-4-carboxamide] | >10
6 | CCn1ncc(-c2nc3c(O[C@H]4CCN(C(=O)OC(C)(C)C)C4)ncnc3n2C)c1C [Compound 1-1, tert-butyl (3S)-3-{[8-(1-ethyl-5-methyl-1H-pyrazol-4-yl)-9-methyl-9H-purin-6-yl]oxy}pyrrolidine-1-carboxylate] | >10
7 | CCn1ncc(-c2nc3c(O[C@H]4CCNC4)ncnc3n2C)c1C [Compound 1-2, 8-(1-ethyl-5-methyl-1H-pyrazol-4-yl)-9-methyl-6-[(3S)-pyrrolidin-3-yloxy]-9H-purine] | >5
8 | CCn1c(-c2cnc(C)nc2)nc2c(O[C@H]3CCN(C(=O)OC(C)(C)C)C3)ncnc21 [Compound 1-3, (S)-tert-butyl 3-(9-ethyl-8-(2-methylpyrimidin-5-yl)-9H-purin-6-yloxy)pyrrolidine-1-carboxylate] | >10
9 | CCn1ncc(-c2nc3c(O[C@H]4CCN(C(=O)OCC(C)C)C4)ncnc3n2C)c1C [Compound 1-4, 2-methylpropyl (3S)-3-{[8-(1-ethyl-5-methyl-1H-pyrazol-4-yl)-9-methyl-9H-purin-6-yl]oxy}pyrrolidine-1-carboxylate] | >10
10 | CCn1ncc(-c2nc3c(O[C@H]4CCN(C(=O)OCc5ccccc5)C4)ncnc3n2C)c1C [Compound 1-6, benzyl (3S)-3-{[8-(1-ethyl-5-methyl-1H-pyrazol-4-yl)-9-methyl-9H-purin-6-yl]oxy}pyrrolidine-1-carboxylate] | 4
11 | CCn1ncc(-c2nc3c(O[C@H]4CCN(C(=O)OCC(C)(C)C)C4)ncnc3n2C)c1C [Compound 1-9, 2,2-dimethylpropyl (3S)-3-{[8-(1-ethyl-5-methyl-1H-pyrazol-4-yl)-9-methyl-9H-purin-6-yl]oxy}pyrrolidine-1-carboxylate] | >10
12 | COc1ncc(-c2nc3c(O[C@H]4CCN(C(=O)OC(C)(C)C)C4)ncnc3n2C)cc1C [Compound 1-13, tert-butyl (3S)-3-{[8-(6-methoxy-5-methylpyridin-3-yl)-9-methyl-9H-purin-6-yl]oxy}pyrrolidine-1-carboxylate] | >10
13 | Cc1ncc(-c2nc3c(OC4CCN(C(=O)OC(C)(C)C)C4)ncnc3n2C)cn1 [Compound 1-14, terl-butyl (3S)-3-{[9-methyl-8-(2-methylpyrimidin-5-yl)-9H-purin-6-yl]oxy}pyrrolidine-1-carboxylate] | >10
14 | Cn1c(-c2ccc(-n3cccn3)cc2)nc2c(O[C@H]3CCN(C(=O)OC(C)(C)C)C3)ncnc21 [Compound 1-15, tert-butyl (3S)-3-({9-methyl-8-[4-(1H-pyrazol-1-yl)phenyl]-9H-purin-6-yl}oxy)pyrrolidine-1-carboxylate] | >10
15 | Cc1nn(C)cc1-c1nc2c(O[C@H]3CCN(C(=O)OC(C)(C)C)C3)ncnc2n1C [Compound 1-16, tert-butyl (3S)-3-{[8-(1,3-dimethyl-1H-pyrazol-4-yl)-9-methyl-9H-purin-6-yl]oxy}pyrrolidine-1-carboxylate] | >9
16 | Cc1ncc(-c2nc3c(O[C@H]4CCN(C(=O)OC(C)(C)C)C4)ncnc3n2C)n1C [Compound 1-17, tert-butyl (3S)-3-{[8-(1,2-dimethyl-1H-imidazol-5-yl)-9-methyl-9H-purin-6-yl]oxy}pyrrolidine-1-carboxylate] | >10
17 | Cn1c(-c2ccc(O)cc2)nc2c(O[C@H]3CCN(C(=O)OC(C)(C)C)C3)ncnc21 [Compound 1-18, tert-butyl (3S)-3-{[8-(4-hydroxyphenyl)-9-methyl-9H-purin-6-yl]oxy}pyrrolidine-1-carboxylate] | >10
18 | Cn1c(-c2cn[nH]c2)nc2c(O[C@H]3CCN(C(=O)OC(C)(C)C)C3)ncnc21 [Compound 1-19, tert-butyl (3S)-3-{[9-methyl-8-(1H-pyrazol-4-yl)-9H-purin-6-yl]oxy}pyrrolidine-1-carboxylate] | >10
19 | CN(C)c1ccc(-c2nc3c(O[C@H]4CCN(C(=O)OC(C)(C)C)C4)ncnc3n2C)cn1 [Compound 1-20, tert-butyl (3S)-3-{[8-(6-(dimethylamino)pyridin-3-yl]-9-methyl-9H-purin-6-yl}oxy)pyrrolidine-1-carboxylate] | >10
20 | Cc1cc2cccc(-c3nc4c(O[C@H]5CCN(C(=O)OC(C)(C)C)C5)ncnc4n3C)c2[nH]1 [Compound 1-21, tert-butyl (3S)-3-{[9-methyl-8-(2-methyl-1H-indol-7-yl)-9H-purin-6-yl]oxy}pyrrolidine-1-carboxylate] | >10
21 | Cn1c(-c2cnn3cccnc23)nc2c(O[C@H]3CCN(C(=O)OC(C)(C)C)C3)ncnc21 [Compound 1-22, tert-butyl (3S)-3-[(9-methyl-8-pyrazolo[1,5-a]pyrimidin-3-yl-9H-purin-6-yl)oxy]pyrrolidine-1-carboxylate] | >10
22 | CC(=O)Nc1ccc(-c2nc3c(O[C@H]4CCN(C(=O)OC(C)(C)C)C4)ncnc3n2C)cc1 [Compound 1-23, tert-butyl (3S)-3-({8-[4-(acetylamino)phenyl]-9-methyl-9H-purin-6-yl}oxy)pyrrolidine-1-carboxylate] | >10
23 | Cn1c(-c2ccc(N3CCOCC3)nc2)nc2c(O[C@H]3CCN(C(=O)OC(C)(C)C)C3)ncnc21 [Compound 1-24, tert-butyl (3S)-3-{[9-methyl-8-(6-morpholin-4-ylpyridin-3-yl)-9H-purin-6-yl]oxy}pyrrolidine-1-carboxylate] | >2
